Several values for one entry are separate records, joined by “and”; a condition that tells them apart may be missing. Equal values may be shown once. Read-outs that look alike come from different tables or passages of the source.
Tests used:
[1] = tested on: human pancreas ductal adenocarcinoma Panc cells (Panc1); test: Cancer cell line growth inhibition assay (DNA content); type: cell-based; settings: for Cellular IC50s Panc 1: Table 1, triazole derivatives, one cell printed for both cell lines; for activity in cell growth inhibition: Panc1, statement in text
Description: (§1) The growth inhibition assay was performed in the Preclinical Drug Testing Laboratory of the Case Comprehensive Cancer Center using a standardized protocol. Cell lines (human colon cancer HCT116 and human pancreas ductal adenocarcinoma Panc cells) were maintained in standard growth media; RPMI1640+10% FBS+2 mM glutamine+100 U/ml penicillin, 100 ug/ml streptomycin and shown to be negative for mycoplasma contamination using the MycoAlert™ Mycoplasma Detection kit (Lonza, Basel, Switzerland). Cell identity was verified by Short Tandem Repeat (STR) testing performed using the Promega StemElite kit, in the Genetic Resources Core Facility (GRCF) at Johns Hopkins University.
(§2) For growth inhibition assays, cells were harvested by trypsinization and seeded into 96-well tissue culture plates at 2500 cells/mL. The following day an equal volume of 2×-drug containing medium was added to each well. The cells were cultured for 3 additional days at 37° C. in a 5% CO2 humidified incubator. Cell growth was assessed by measuring DNA content per well using the method of Labarca and Paigen. Dye fluorescence was measured in a Perkin-Elmer 1420 Victor 3 Multilabel plate reader using 355 nm excitation and 460 nm emission.

[2] = tested on: human colon cancer HCT116; test: as above; type: cell-based; settings: for Cellular IC50s HCT-116: Table 1, triazole derivatives, one cell printed for both cell lines; for activity in cell growth inhibition: HCT116, statement in text; for IC50: HCT-116
Description: as §1, §2

hRRM1 hexamers = biological target: T1, hRRM1 hexamers (Homo sapiens, UniProt P23921); settings: background statement; cited from earlier work
T1 sequence (P23921 1-792): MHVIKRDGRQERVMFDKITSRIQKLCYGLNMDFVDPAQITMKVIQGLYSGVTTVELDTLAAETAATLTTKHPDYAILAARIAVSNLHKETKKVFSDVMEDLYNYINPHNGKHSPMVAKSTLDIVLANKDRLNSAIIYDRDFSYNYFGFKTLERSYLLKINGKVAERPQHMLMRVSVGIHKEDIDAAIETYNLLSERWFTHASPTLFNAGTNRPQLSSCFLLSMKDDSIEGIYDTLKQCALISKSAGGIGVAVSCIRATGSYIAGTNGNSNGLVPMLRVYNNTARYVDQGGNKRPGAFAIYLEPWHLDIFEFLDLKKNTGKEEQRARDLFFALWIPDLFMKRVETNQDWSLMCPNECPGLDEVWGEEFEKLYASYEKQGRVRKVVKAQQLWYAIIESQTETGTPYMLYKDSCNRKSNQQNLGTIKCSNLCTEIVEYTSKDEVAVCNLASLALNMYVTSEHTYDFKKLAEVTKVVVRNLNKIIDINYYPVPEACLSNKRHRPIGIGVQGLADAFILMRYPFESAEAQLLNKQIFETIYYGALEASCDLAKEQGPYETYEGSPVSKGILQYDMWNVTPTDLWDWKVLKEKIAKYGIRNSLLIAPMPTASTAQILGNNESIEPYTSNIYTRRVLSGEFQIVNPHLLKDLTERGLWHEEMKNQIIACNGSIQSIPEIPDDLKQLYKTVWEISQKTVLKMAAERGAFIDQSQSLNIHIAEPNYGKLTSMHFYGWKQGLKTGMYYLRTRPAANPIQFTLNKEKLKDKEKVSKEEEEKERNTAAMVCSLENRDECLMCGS

[3] = tested on: normal mobilized peripheral blood progenitor cells; settings: previously characterized; cited from earlier work
[4] = Homo sapiens, PANC-1, Panc1, Calcusyn fit, runs Oct. 21 and Oct. 24, 2016, read-out: Dm
[5] = Homo sapiens, PANC-1, Table 2, oxadiazoles, read-out: Cellular IC50s Panc 1
[6] = Homo sapiens, Table 2, oxadiazoles, read-out: Cellular IC50s HCT-116
[7] = Homo sapiens, Calcusyn fit, runs Oct. 21 and Oct. 24, 2016, read-out: Dm

Row | IC50 [1, 4] [nM] | IC50 [2, 7] [nM] | Structure (SMILES) | Cellular IC50s Panc 1 [1] | Cellular IC50s HCT-116 [2] | other results
1 | – | – | COc1ccc2cc(-c3cn(CCc4ccc(O)cc4)nn3)ccc2c1 | No cytotoxicity | No cytotoxicity | –
2 | – | – | Cc1c(-n2cc(-c3c(O)ccc4ccccc34)nn2)c(=O)n(-c2ccccc2)n1C | No cytotoxicity | No cytotoxicity | –
3 | – | – | Nc1nc(Cl)nc2c1ncn2[C@@H]1O[C@H](CO)[C@@H](O)[C@@H]1F [clofarabine, 2′-fluro-2′-deoxyarabinofuranosyl-2-chloroadenine] | – | – | binding affinity (hRRM1 hexamers): nanomolar affinity
4 | 53600 | 6890 | Oc1ccccc1-c1nnc(-c2c(O)ccc3ccccc23)o1 [Oxa A] | – | – | IC50 [1, 5]: 7000 nM; activity in cell growth inhibition [1]: low micromolar range; activity in cell growth inhibition [2]: low micromolar range; IC50 [2, 6]: 3200 nM
5 | – | – | COc1ccc2cc(-c3cn(Cc4ccccc4)nn3)ccc2c1 | No cytotoxicity | No cytotoxicity | –
6 | > 10000 | > 10000 | O=C(c1c(O)ccc2ccccc12)n1cc(-c2cccnc2)nn1 [NSAAT F] | – | – | –
7 | – | – | O=C(NN=Cc1c(O)ccc2ccccc12)c1ccccc1O [NSAAH, Naphthyl Salicyl Acyl Hydrazone, reference compound] | – | – | cytotoxicity [3]: little measurable cytotoxicity; IC50 ([1]; Panc1, Calcusyn fit, runs Oct. 21 and Oct. 24, 2016, listed as NSAAH (new), read-out: Dm): 850 nM; IC50 ([1]; Panc1, Calcusyn fit, runs Oct. 21 and Oct. 24, 2016, listed as NSAAH (old), read-out: Dm): 550 nM and 480 nM; IC50 ([2]; Calcusyn fit, runs Oct. 21 and Oct. 24, 2016, listed as NSAAH (new), read-out: Dm): 176 nM; IC50 ([2]; Calcusyn fit, runs Oct. 21 and Oct. 24, 2016, listed as NSAAH (old), read-out: Dm): 234 nM and 166 nM
8 | – | – | O=C(c1c(O)ccc2ccccc12)n1cc(-c2cccnc2)nn1 [drawing 60] | No cytotoxicity | No cytotoxicity | –
9 | – | – | NC1(c2cn([C@H](c3ccccc3)[C@H](O)c3ccccc3)nn2)CCCCC1 [drawing 59] | No cytotoxicity | No cytotoxicity | –
10 | 1920 | 1410 | Oc1ccc2ccccc2c1-c1nnc(-c2cccnc2)o1 [Oxa F] | – | – | IC50 [1, 5]: 2500 nM; activity in cell growth inhibition [1]: low micromolar range; activity in cell growth inhibition [2]: low micromolar range; IC50 [2, 6]: 1200 nM
11 | – | – | C[C@@H]([C@H](O)c1ccccc1)n1cc(-c2c(O)ccc3ccccc23)nn1 | No cytotoxicity | No cytotoxicity | –
12 | – | – | O=C(O)CC(c1ccccc1)n1cc(-c2c(O)ccc3ccccc23)nn1 (stereo not drawn) | No cytotoxicity | No cytotoxicity | –

Row | Structure (SMILES) | IC50 [1, 4] [nM] | IC50 [2, 7] [nM] | Cellular IC50s Panc 1 [1] | Cellular IC50s HCT-116 [2] | other results
13 | NC1(c2cn([C@H](c3ccccc3)[C@H](O)c3ccccc3)nn2)CCCCC1 [NSAAT E] | > 10000 | 66800 | – | – | –

— patent US11439623B2, “Method of modulating ribonucleotide reductase” (CASE WESTERN RESERVE UNIVERSITY, priority 2017, dated 2022)
